Activity calls are given as the source filed them. No cut-off for these calls is given here.
Tests used:
[1] = system: HeLa; assay: Antiproliferative activity against human HeLa cells after 24 hrs by SRB assay; format: functional, cell-based
[2] = system: A549; assay: Antiproliferative activity against human A549 cells after 24 hrs by SRB assay; format: functional, cell-based; conditions: A549, 24 h
[3] = system: MDA-MB-231; assay: Antiproliferative activity against human MDA-MB-231 cells after 24 hrs by SRB assay; format: functional, cell-based; conditions: MDA-MB-231, 24 h
[4] = system: HEK293; assay: Antiproliferative activity against HEK293 cells after 24 hrs by SRB assay; format: cell-based; conditions: Homo sapiens, HEK293, 24 h
[5] = system: HeLa; assay: Cell cycle arrest in human HeLa cells assessed as accumulation of cells at G2/M phase at 5 uM after 24 hrs by propidium iodide staining-based flow cytometric analysis (reference value: 16.4%); format: functional
[6] = system: HeLa; assay: Inhibition of microtubules in human HeLa cells assessed as induction of disorganized spindle fibers formation at 5 uM after 24 hrs by DAPI staining-based confocal microscopic analysis; format: cell-based
[7] = target: Tubulin (Homo sapiens) (UniProt P68371+Q9H4B7+P0DPH7+P68366+Q13509+Q71U36+P04350+Q3ZCM7+P07437+P68363+Q9BQE3+Q6PEY2+Q13885+Q9BVA1+Q9BUF5); assay: Inhibition of tubulin polymerization in human HeLa cells assessed as reduction in polymerized tubulin expression at 5 uM affter 24 hrs by Western blot analysis; format: cell-based
[8] = system: HeLa; assay: Induction of apoptosis in human HeLa cells assessed as increase in p53 expression at 5 uM after 24 hrs by Western blot analysis; format: functional, cell-based
[9] = system: HeLa; assay: Induction of apoptosis in human HeLa cells assessed as increase in p21 expression at 5 uM after 24 hrs by Western blot analysis; format: functional, cell-based
[10] = system: HeLa; assay: Induction of apoptosis in human HeLa cells assessed as increase in Bax expression at 5 uM after 24 hrs by Western blot analysis; format: functional, cell-based
[11] = system: HeLa; assay: Induction of apoptosis in human HeLa cells assessed as increase in p53 expression at 5 uM after 24 hrs by DAPI staining-based immunocytochemistry; format: functional, cell-based
[12] = system: HeLa; assay: Induction of apoptosis in human HeLa cells assessed as increase in Bax expression at 5 uM after 24 hrs by DAPI staining-based immunocytochemistry; format: functional, cell-based
[13] = system: HeLa; assay: Induction of apoptosis in human HeLa cells assessed as increase in caspase-3 activation at 5 uM after 24 hrs by fluorescence assay; format: functional, cell-based
[14] = system: HeLa; assay: Inhibition of microtubules in human HeLa cells assessed as induction of cell cycle arrest in metaphase at 5 uM after 24 hrs by DAPI staining-based confocal microscopic analysis
[15] = system: HeLa; assay: Inhibition of microtubules in human HeLa cells assessed as increase in cyclin B1 protein level at 5 uM affter 24 hrs by Western blot analysis; format: cell-based
[16] = system: HeLa; assay: Inhibition of microtubules in human HeLa cells assessed as increase in CDK1 protein level at 5 uM affter 24 hrs by Western blot analysis; format: cell-based

Row | SMILES | IC50 [1] [µM] | IC50 [2] [µM] | IC50 [3] [µM] | IC50 [4] [µM] | other results
1 | COc1ccc(/C=C\c2cc(OC)c(OC)c(OC)c2)cc1O [COMBRETASTATIN A4] | 1.43 | 1.15 | 0.92 | 1.73 | Activity [5]: 55.8%; inhibition [6]: Active; inhibition [14]: Active
2 | COc1ccc2c(c1)-c1n[nH]c(/C=C3\C(=O)Nc4ccc(Cl)cc43)c1C2 | 17.5 | 17.6 | 20.8 | 27.4 | 
3 | COc1cc2c(cc1OC)-c1n[nH]c(/C=C3\C(=O)Nc4cc([N+](=O)[O-])ccc43)c1C2 | 30.7 | 34.4 | 29.9 | 36.7 | 
4 | COc1ccc2c(c1)-c1n[nH]c(/C=C3\C(=O)Nc4cc(Br)ccc43)c1C2 | 25.4 | 26.1 | 23.4 | 28.6 | 
5 | COc1cc2c(cc1OC)-c1n[nH]c(/C=C3\C(=O)Nc4cc(Br)ccc43)c1C2 | 20.5 | 22.5 | 20.4 | 24.6 | 
6 | COc1ccc2c(c1)-c1n[nH]c(/C=C3\C(=O)Nc4cc(Cl)ccc43)c1C2 | 17 | 20.9 | 19 | 21.9 | 
7 | COc1ccc2c(c1)-c1n[nH]c(/C=C3\C(=O)Nc4ccc(Br)cc43)c1C2 | 30.9 | 29.8 | 34.1 | 35.8 | 
8 | COc1ccc2c(c1)-c1n[nH]c(/C=C3\C(=O)Nc4ccc([N+](=O)[O-])cc43)c1C2 | 22.1 | 26 | 29.2 | 30.8 | 
9 | O=C1Nc2cc(Br)ccc2/C1=C/c1[nH]nc2c1Cc1ccccc1-2 | 30.7 | 35.6 | 29.7 | 34.2 | 
10 | COc1ccc2c(c1)/C(=C/c1[nH]nc3c1Cc1ccccc1-3)C(=O)N2 | 30.1 | 29.6 | 26.7 | 33.9 | 

Now from value to compound, other results behind:

Row | IC50 [1] [µM] | IC50 [2] [µM] | IC50 [3] [µM] | SMILES | IC50 [4] [µM] | other results
11 | 1.33 | 2.44 | 2.08 | COc1cc2c(cc1OC)-c1n[nH]c(/C=C3\C(=O)Nc4cc(Cl)ccc43)c1C2 | 2.97 | Activity [5]: 30.3%; inhibition [6]: Active; inhibition [7]: Active; Activity [8]: Active; Activity [9]: Active; Activity [10]: Active; Activity [11]: Active; Activity [12]: Active; Activity [13]: Active; inhibition [14]: Active; inhibition [15]: Active; inhibition [16]: Active
12 | 14.6 | 20.5 | 24.3 | O=C1Nc2cc(Cl)ccc2/C1=C/c1[nH]nc2c1Cc1ccccc1-2 | 19.4 | 
13 | 11.7 | 16.6 | 19 | O=C1Nc2ccccc2/C1=C/c1[nH]nc2c1Cc1ccccc1-2 | 24.3 | 
14 | 2.16 | 2.92 | 3.45 | COc1cc2c(cc1OC)-c1n[nH]c(/C=C3\C(=O)Nc4ccccc43)c1C2 | 4.36 | Activity [5]: 23.6%; inhibition [6]: Active; inhibition [7]: Active; Activity [13]: Active; inhibition [14]: Active; inhibition [15]: Active; inhibition [16]: Active
15 | 15.2 | 20.5 | 16.8 | O=C1Nc2ccc(Cl)cc2/C1=C/c1[nH]nc2c1Cc1ccccc1-2 | 24.3 | 
16 | 8.96 | 13.5 | 12.3 | COc1cc2c(cc1OC)-c1n[nH]c(/C=C3\C(=O)Nc4ccc(Cl)cc43)c1C2 | 9.21 | 
17 | 2.58 | 3.43 | 4.14 | COc1ccc2c(c1)/C(=C/c1[nH]nc3c1Cc1cc(OC)c(OC)cc1-3)C(=O)N2 | 5.1 | Activity [5]: 31.3%; inhibition [6]: Active; inhibition [7]: Active; inhibition [14]: Active; inhibition [15]: Active; inhibition [16]: Active
18 | 11.5 | 17.1 | 18.7 | COc1cc2c(cc1OC)-c1n[nH]c(/C=C3\C(=O)Nc4ccc(Br)cc43)c1C2 | 19.6 | 
19 | 16 | 20.6 | 19.3 | COc1ccc2c(c1)-c1n[nH]c(/C=C3\C(=O)Nc4ccccc43)c1C2 | 22.5 | 
20 | 16.9 | 21.1 | 20.3 | O=C1Nc2ccc(Br)cc2/C1=C/c1[nH]nc2c1Cc1ccccc1-2 | 22.5 | 
